Entries after “also recorded” stand apart in the source; their conditions may differ. Read-outs that look alike come from different tables or passages of the source.
Assays:
[1] = tested on: MCF-7 human breast cancer line; assay: PET tracer uptake in multicellular tumor spheroids (MTS) after anticancer treatment; assay type: cell-based; conditions: MCF-7 MTSs; 1 and 10µM; 3 and 5 days of treatment; normalized to control
Description: Cells of the MCF-7 human breast cancer line (European Collection of Cell Culture) were grown in MEM/EBSS supplemented with 10% FCS, 1mM sodium pyruvate, 2mM L-glutamine, 1% non-essential amino acid and 5% penicillin (Tamro).
After 1 h the medium was renewed.
In each experimental set-up four MTSs in one 24-well plate were referred to as one group. The groups included control (without treatment agent) and five different treatments with same concentration.
The response to each anticancer treatment was evaluated by measurement of the tracer uptake and total volume of the MTSs after 3 and 5 days of treatment.
Images of MTSs were recorded using a Nikon Colorpix 4500 camera mounted on an inverted Zeiss microscope before Tracer incubation. The acquired data were analyzed by SASDM.
To monitor the effect of each anti-cancer treatment five established PET-tracers; [1-^11C]Acetate, [^11C]Choline, [^11C]Methionine, [^18F]3'-Deoxy-3'-fluorthymifine and 2-[^18F]Fluor-2-deoxyglucose were utilized.
The aggregates were incubated for 30 min (for ^18F-labled tracers) and 50 min (for ^11C-labled tracers) at 37°C with 0.5 ml medium per well containing 3MBq Tracer, and then washed 3x5 min (for ^18F-labled tracers) and 3x3 min (for ^11C-labled tracers) with medium (1 ml/well).
The Tracer-uptake in MTS was defined as: Total uptake = (Act conc.(Bq/ml)of MTS)/(Act conc.(Bq/ml)of reference) [formula]
Each experiment set-up was repeated three times.

[2] = tested on: MCF-7 human breast cancer line; assay: [18F]FDG uptake per viable volume of MTS after anticancer treatment (MCF-7); assay type: cell-based; conditions: MCF-7 MTSs; for [^18F]FDG uptake per viable volume: highest dose of 1 µM
Description: (§1) • a. Cells of the MCF-7 human breast cancer line (European Collection of Cell Culture) were grown in MEM/EBSS supplemented with 10% FCS, 1mM sodium pyruvate, 2mM L-glutamine, 1% non-essential amino acid and 5% penicillin (Tamro). […] Cells of the BT474 human breast cancer line (American Type Culture Collection) were grown in DMEM supplemented with 10% FCS, 1mM sodium pyruvate, and 5% penicillin (Tamro).
(§2) The MTSs were incubated for 50 min at 37°C with 0.5 ml medium per well containing 3MBq [^18F]FDG[21], and then washed 3x5 min with medium (1 ml/well).
For the MCF-7 cell line, each group included 6 replicates and the experiments were repeated twice.
The response to each anticancer treatment was evaluated by measurement of the [^18F]FDG uptake and viable volume of the MTSs after 2 and 3 days of treatment.

[3] = tested on: BT474 human breast cancer line; assay: [18F]FDG uptake per viable volume of MTS after anticancer treatment (BT474); conditions: BT474 MTSs
MTSs of MCF-7 cell line = assay: Basic [18F]FDG uptake experiments in MTS (competition, inhibition, insulin); assay type: cell-based, human
Description: as §1, §2
To ensure the physiological validity of [^18F]FDG uptake in MTS, a number of basic experiments were performed: • Temperature dependence of [^18F]FDG uptake. The [^18F]FDG uptake experiments were performed with two different incubation temperatures: 4°C and 37°C. • Competition Experiment. Glucose concentration in the growing culture medium was 5 mM. To perform the competition experiment, unlabeled extra glucose was diluted in the growing culture medium with a concentration of 0mM (for the control group), 5mM, 10mM and 20mM. Culture medium was replaced by glucose/[^18F]FDG-containing culture medium. After 50 min incubation the [^18F]FDG uptake was measured. • Inhibition Experiment. The MTSs were pre-incubated with four different concentrations of an inhibitor of glucose transport, Cytochalasin-B; 0µM (for control group), 10µM, 25µM and 50µM followed by 50 min [^18F]FDG incubation. • Insulin-mediated [^18F]FDG uptake. The MTSs were pre-incubated with or without (control group) 10µM insulin followed by 50 min [^18F]FDG incubation.
It is noticeable that the basic experiments were performed only on MTSs of MCF-7 cell line. In each experimental set-up six MTSs in one 24-well plate were referred to as one group and the experiments were repeated three times.

CC/C(=C(\c1ccccc1)c1ccc(OCCN(C)C)cc1)c1ccccc1 [Tamoxifen]
ACE-uptake [1]: increase | FLT-uptake [1]: decreased | MET-uptake [1]: decrease | [^18F]FDG uptake per viable volume [2]: reduced

Cc1ccc(NC(=O)c2ccc(CN3CCN(C)CC3)cc2)cc1Nc1nccc(-c2cccnc2)n1 [Imatinib]
CHO-uptake [1]: decrease | FLT-uptake [1]: increase

CC(=O)O[C@H]1C(=O)[C@@]2(C)[C@H]([C@H](OC(=O)c3ccccc3)[C@]3(O)C[C@H](OC(=O)[C@H](O)[C@@H](NC(=O)c4ccccc4)c4ccccc4)C(C)=C1C3(C)C)[C@]1(OC(C)=O)CO[C@@H]1C[C@@H]2O [Paclitaxel]
ACE-uptake [1]: approximately as non-treated MTSs | FDG-uptake [1]: approximately as non-treated MTSs | FLT-uptake [1]: significant decrease; also recorded: decreased | [^18F]FDG uptake per viable volume (glucose transport) ([2]; 10nM, 100nM, 1µM, 2 and 3 days, overall): more moderate | glucose transport per viable volume ([3]; lowest dose and shorter treatment time): reduced

CC(=O)O[C@@]12CO[C@@H]1C[C@H](O)[C@@]1(C)C(=O)[C@H](O)C3=C(C)[C@@H](OC(=O)[C@H](O)[C@@H](NC(=O)OC(C)(C)C)c4ccccc4)C[C@@](O)([C@@H](OC(=O)c4ccccc4)[C@H]21)C3(C)C [Docetaxel]
CHO-uptake [1]: increase | FLT-uptake [1]: decreased | MET-uptake [1]: increase

COc1cccc2c1C(=O)c1c(O)c3c(c(O)c1C2=O)C[C@@](O)(C(=O)CO)C[C@@H]3O[C@H]1C[C@H](N)[C@H](O)[C@H](C)O1 [Doxorubicin]
ACE-uptake [1]: less decrease | FDG-uptake [1]: less decrease | FLT-uptake [1]: considerable FLT-reduction; also recorded: decreased | reduction of [^18F]FDG uptake per viable volume ([2]; at the highest dose): 25% | [^18F]FDG uptake per viable volume [2]: decreased | [^18F]FDG uptake per viable volume ([3]; at the highest dose): reduced; also recorded: decreased

OC[C@H]1OC(O)[C@H](O)[C@@H](O)[C@@H]1O (stereo partly drawn) [glucose]
IC50 (MTSs of MCF-7 cell line; Homo sapiens, MCF7, 50 min, unlabeled extra glucose 0, 5, 10, 20mM added to medium (5 mM glucose), 50 min incubation, read-out: concentration inducing a 50% reduction of [^18F]FDG uptake compared to control): 10 mM | [^18F]FDG uptake in MTSs (MTSs of MCF-7 cell line; increasing concentration of glucose added to incubation medium): gradually decreased

C=C1[C@@H](C)[C@H]2[C@H](Cc3ccccc3)NC(=O)[C@]23OC(=O)/C=C/[C@H](O)CCC[C@@H](C)C/C=C/[C@H]3[C@@H]1O [Cytochalasin B]
[^18F]FDG uptake (MTSs of MCF-7 cell line; glucose-transport inhibitor added to incubation medium, 10-50µM): significantly decreased | IC50 (MTSs of MCF-7 cell line; pre-incubation 0, 10, 25, 50µM, then 50 min [18F]FDG incubation, read-out: 50% inhibition of [^18F]FDG uptake): 0.012 mM

From patent EP1861713B1, “METHOD OF SCREENING PET TRACERS FOR EARLY CANCER THEREAPY MONITORING” (GE Healthcare Limited, priority 2005, dated 2006)
